{"source": "ChEMBL document CHEMBL5335769", "about": "“Design, synthesis and biological evaluation of novel diarylacylhydrazones derivatives for the efficient treatment of idiopathic pulmonary fibrosis” (Eur J Med Chem, 2023)", "key": {"Mus musculus [1]": {"test_system": "Mus musculus", "experiment": "Anti-fibrotic activity in bleomycin-induced C57BL/6 mouse model of pulmonary fibrosis assessed as […] in E-Cadherin expression level at 30 to 60 mg/kg, po pretreated with bleomycin for 1 day followed by compound addition once daily for 22 days by Western blot analysis", "format": "functional, organism-based", "conditions": "dose 30-60 mg/kg, time 22.0 day"}, "NIH3T3 [2]": {"test_system": "NIH3T3", "experiment": "Antiproliferative activity against NIH3T3 cells after 72 hrs by MTT assay", "format": "functional, cell-based", "conditions": "Mus musculus, NIH3T3, 72 h"}, "[3]": {"experiment": "AUC(0 to infinity) in Sprague-Dawley rat at 2 mg/kg, iv measured upto 24 hrs", "format": "ADME, organism-based", "design": "time < 24 hrs, dose 2 mg/kg, route iv", "conditions": "in vivo"}, "[4]": {"experiment": "Cmax in Sprague-Dawley rat at 2 mg/kg, iv measured upto 24 hrs", "format": "ADME, organism-based", "design": "time < 24 hrs, dose 2 mg/kg, route iv", "conditions": "in vivo"}, "[5]": {"experiment": "Toxicity in C57BL/6 mouse assessed as effect on spleen tissue at 30 to 60 mg/kg, po administered once daily", "format": "organism-based", "conditions": "in vivo, dose 30-60 mg/kg"}, "Mus musculus [6]": {"test_system": "Mus musculus", "experiment": "Anti-fibrotic activity in bleomycin-induced C57BL/6 mouse model of pulmonary fibrosis assessed as increase in E-cadherin level at 60 mg/kg, po pretreated with bleomycin followed by compound addition once daily on day 7 to 14", "format": "functional, organism-based", "conditions": "time 7.0 day"}, "[7]": {"experiment": "Half life in Sprague-Dawley rat at 20 mg/kg, po measured upto 24 hrs", "format": "ADME, organism-based", "conditions": "in vivo"}, "Mus musculus [8]": {"test_system": "Mus musculus", "experiment": "Anti-fibrotic activity in bleomycin-induced C57BL/6 mouse model of pulmonary fibrosis assessed as reduction in collagen I level at 60 mg/kg, po pretreated with bleomycin followed by compound addition once daily on day 7 to 14", "format": "functional, organism-based", "conditions": "time 7.0 day"}, "A549": {"test_system": "A549", "experiment": "Inhibition of TGF-beta1 induced epithelial-mesenchymal transition in human A549 cells assessed as reduction in E-cadherin protein level at 6 uM preincubated with TGF-beta1 for 1 hr followed by compound addition and measured after 24 hrs by immunofluorescence staining based analysis", "format": "functional, cell-based"}, "[9]": {"experiment": "Clearance in Sprague-Dawley rat at 2 mg/kg, iv measured upto 24 hrs", "format": "ADME, organism-based", "conditions": "in vivo"}, "[10]": {"experiment": "AUC(0 to infinity) in Sprague-Dawley rat at 20 mg/kg, po measured upto 24 hrs", "format": "ADME, organism-based", "design": "dose 20 mg/kg, time < 24 hrs, route po", "conditions": "in vivo"}, "[11]": {"target": "Signal transducer and activator of transcription 3 (Homo sapiens) (UniProt P40763)", "sequence (P40763 whole entry)": "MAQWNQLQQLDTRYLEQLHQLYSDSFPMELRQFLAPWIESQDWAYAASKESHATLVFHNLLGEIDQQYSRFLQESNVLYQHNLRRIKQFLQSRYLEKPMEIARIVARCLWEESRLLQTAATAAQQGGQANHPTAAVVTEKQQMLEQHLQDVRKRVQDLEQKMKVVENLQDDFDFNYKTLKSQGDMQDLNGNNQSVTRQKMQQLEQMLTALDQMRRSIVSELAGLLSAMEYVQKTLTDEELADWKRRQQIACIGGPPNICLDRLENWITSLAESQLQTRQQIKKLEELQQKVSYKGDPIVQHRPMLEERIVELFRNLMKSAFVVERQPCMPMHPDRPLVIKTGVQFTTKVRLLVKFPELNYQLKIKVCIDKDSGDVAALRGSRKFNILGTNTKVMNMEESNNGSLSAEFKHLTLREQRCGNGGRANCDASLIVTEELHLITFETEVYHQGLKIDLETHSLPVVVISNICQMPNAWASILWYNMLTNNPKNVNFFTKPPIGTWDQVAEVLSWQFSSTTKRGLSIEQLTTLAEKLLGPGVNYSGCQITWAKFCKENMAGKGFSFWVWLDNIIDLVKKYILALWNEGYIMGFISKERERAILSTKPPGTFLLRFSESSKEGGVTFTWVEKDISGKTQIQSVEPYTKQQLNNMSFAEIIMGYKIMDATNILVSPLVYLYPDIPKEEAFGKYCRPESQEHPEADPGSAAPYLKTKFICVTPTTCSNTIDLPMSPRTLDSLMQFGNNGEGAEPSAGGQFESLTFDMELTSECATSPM", "experiment": "Binding affinity to STAT3 in human A549 cells assessed as STAT3 stabilization incubated for 1 hr by CETSA", "format": "cell-based"}, "[12]": {"target": "Signal transducer and activator of transcription 3 (Homo sapiens) (UniProt P40763)", "experiment": "Binding affinity to STAT3 in […] cells assessed as STAT3 stabilization incubated for 1 hr by CETSA", "format": "cell-based", "conditions": "NIH3T3"}, "[13]": {"experiment": "Aqueous solubility of compound incubated for 1 hr by HPLC analysis", "format": "physicochemical"}, "Mus musculus [14]": {"test_system": "Mus musculus", "experiment": "Anti-fibrotic activity in bleomycin-induced C57BL/6 mouse model of pulmonary fibrosis assessed as reduction in lung to body weight ratio at 60 mg/kg, po pretreated with bleomycin followed by compound addition once daily on day 7 to 14", "format": "functional, organism-based", "conditions": "time 7.0 day"}, "NIH3T3 [15]": {"test_system": "NIH3T3", "experiment": "Antiproliferative activity against NIH3T3 cells at 10 uM after 72 hrs by MTT assay", "format": "functional, Mus musculus"}, "Mus musculus [16]": {"test_system": "Mus musculus", "experiment": "Anti-fibrotic activity in bleomycin-induced C57BL/6 mouse model of pulmonary fibrosis assessed as reduction in p-STAT3 protein level at 30 to 60 mg/kg, po pretreated with bleomycin for 1 day followed by compound addition once daily for 22 days by Western blot analysis", "format": "functional, organism-based", "conditions": "dose 30-60 mg/kg, time 22.0 day"}, "Mus musculus [17]": {"test_system": "Mus musculus", "experiment": "Anti-fibrotic activity in bleomycin-induced C57BL/6 mouse model of pulmonary fibrosis assessed as reduction in hydroxyproline level at 60 mg/kg, po pretreated with bleomycin followed by compound addition once daily on day 7 to 14", "format": "functional, organism-based", "conditions": "time 7.0 day"}, "[18]": {"experiment": "Toxicity in C57BL/6 mouse assessed as effect on heart tissue at 30 to 60 mg/kg, po administered once daily", "format": "organism-based", "conditions": "in vivo, dose 30-60 mg/kg"}, "NIH3T3 [19]": {"test_system": "NIH3T3", "experiment": "Inhibition of TGF-beta1 induced NIH-3T3 cells activation assessed as reduction in alpha-SMA level at 6 uM preincubated with TGF-beta1 for 1 hr followed by compound addition and measured after 24 hrs by DAPI staining based fluorescence microscopic analysis", "format": "functional, cell-based", "conditions": "Mus musculus"}, "Mus musculus [20]": {"test_system": "Mus musculus", "experiment": "Anti-fibrotic activity in bleomycin-induced C57BL/6 mouse model of pulmonary fibrosis assessed as reduction in ratio of macrophage cells at 30 mg/kg, po administered once daily by flow cytometry analysis (reference value: 21.51%)", "format": "functional", "design": "scale not given: the % may be the effect or the level left"}, "Mus musculus [21]": {"test_system": "Mus musculus", "experiment": "Anti-fibrotic activity in bleomycin-induced C57BL/6 mouse model of pulmonary fibrosis assessed as reduction in ratio of macrophage cells at 60 mg/kg, po pretreated with bleomycin followed by compound addition once daily on day 7 to 14 by flow cytometry analysis (reference value: 12.77%)", "format": "functional", "design": "scale not given: the % may be the effect or the level left", "conditions": "time 7 day"}, "Mus musculus [22]": {"test_system": "Mus musculus", "experiment": "Anti-fibrotic activity in bleomycin-induced C57BL/6 mouse model of pulmonary fibrosis assessed as reduction in ratio of CD69+CD4+ T cells at 60 mg/kg, po administered once daily by flow cytometry analysis (reference value: 9.05%)", "format": "functional, T-cell", "design": "scale not given: the % may be the effect or the level left"}, "Mus musculus [23]": {"test_system": "Mus musculus", "experiment": "Anti-fibrotic activity in bleomycin-induced C57BL/6 mouse model of pulmonary fibrosis assessed as reduction in lung pathological features at 30 to 60 mg/kg, po pretreated with bleomycin for 1 day followed by compound addition once daily for 22 days by H and E staining based analysis", "format": "functional, organism-based", "conditions": "dose 30-60 mg/kg, time 22.0 day"}}, "note": "Active and inactive are the calls of the source. The rule behind the calls is not given here.", "data": [{"smiles": "O=C(N/N=C/c1ccc([N+](=O)[O-])s1)c1ccc(OCCCCCCN2CCCCC2)cc1", "values": [{"measurement": "Activity", "setting": "Mus musculus [1]", "value": "Active"}, {"measurement": "IC50", "setting": "NIH3T3 [2]", "value": 1360, "unit": "nM"}, {"measurement": "AUC(0-inf)", "setting": "[3]", "value": 371, "unit": "ng·h/mL"}, {"measurement": "Cmax", "setting": "[4]", "value": 471, "unit": "ng/mL"}, {"measurement": "Activity", "setting": "[5]", "value": "Non-Toxic"}, {"measurement": "Activity", "setting": "Mus musculus [6]", "value": "Active"}, {"measurement": "half-life", "setting": "[7]", "value": 1.23, "unit": "h"}, {"measurement": "Activity", "setting": "Mus musculus [8]", "value": "Active"}, {"measurement": "inhibition", "setting": "A549", "value": "Active"}, {"measurement": "clearance", "setting": "[9]", "value": 92.8, "unit": "mL/min/kg"}, {"measurement": "AUC(0-inf)", "setting": "[10]", "value": 1500, "unit": "ng·h/mL"}, {"measurement": "Activity", "setting": "[11]", "value": "Active"}, {"measurement": "Activity", "setting": "[12]", "value": "Active"}, {"measurement": "solubility at 1 h", "setting": "[13]", "value": 390, "unit": "µg/mL"}, {"measurement": "Activity", "setting": "Mus musculus [14]", "value": "Active"}, {"measurement": "Activity", "setting": "NIH3T3 [15]", "value": 81.88, "unit": "%"}, {"measurement": "Activity", "setting": "Mus musculus [16]", "value": "Active"}, {"measurement": "Activity", "setting": "Mus musculus [17]", "value": "Active"}, {"measurement": "Activity", "setting": "[18]", "value": "Non-Toxic"}, {"measurement": "inhibition", "setting": "NIH3T3 [19]", "value": "Active"}, {"measurement": "Activity", "setting": "Mus musculus [20]", "value": 4.79, "unit": "%"}, {"measurement": "Activity", "setting": "Mus musculus [21]", "value": 10.41, "unit": "%"}, {"measurement": "Activity", "setting": "Mus musculus [22]", "value": 3.06, "unit": "%"}, {"measurement": "Activity", "setting": "Mus musculus [23]", "value": "Active"}]}]}
